Read-outs that look alike come from different tables or passages of the source. Ends that are not written are not given here.
T1: FPR1 (Homo sapiens, UniProt P21462)
T1 construct: expressed in transfected cells; host or cells: HEK293T
T1 sequence (P21462 1-350): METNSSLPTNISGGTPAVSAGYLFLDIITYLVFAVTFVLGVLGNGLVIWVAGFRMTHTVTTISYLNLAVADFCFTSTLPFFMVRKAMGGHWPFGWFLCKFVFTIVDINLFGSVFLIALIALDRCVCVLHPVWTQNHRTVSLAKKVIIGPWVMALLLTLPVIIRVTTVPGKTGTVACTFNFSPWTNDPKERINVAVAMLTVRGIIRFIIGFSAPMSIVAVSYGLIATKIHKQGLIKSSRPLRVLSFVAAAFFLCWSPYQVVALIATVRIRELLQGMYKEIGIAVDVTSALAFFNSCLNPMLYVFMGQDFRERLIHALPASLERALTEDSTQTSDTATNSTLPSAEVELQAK

T2: Formyl peptide receptor 2 (human, UniProt P25090 1-351)
T2 chain: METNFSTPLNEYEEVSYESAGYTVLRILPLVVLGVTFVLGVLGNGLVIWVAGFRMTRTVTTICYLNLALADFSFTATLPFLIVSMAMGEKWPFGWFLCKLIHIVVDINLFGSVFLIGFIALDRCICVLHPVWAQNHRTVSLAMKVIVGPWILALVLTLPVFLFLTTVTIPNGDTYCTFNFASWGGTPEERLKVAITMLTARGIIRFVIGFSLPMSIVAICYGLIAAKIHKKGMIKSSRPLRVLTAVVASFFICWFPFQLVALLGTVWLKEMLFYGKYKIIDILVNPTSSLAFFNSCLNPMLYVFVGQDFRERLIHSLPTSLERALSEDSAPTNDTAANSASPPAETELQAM

T3: Formyl peptide receptor 3 (human, UniProt P25089 1-353)
T3 chain: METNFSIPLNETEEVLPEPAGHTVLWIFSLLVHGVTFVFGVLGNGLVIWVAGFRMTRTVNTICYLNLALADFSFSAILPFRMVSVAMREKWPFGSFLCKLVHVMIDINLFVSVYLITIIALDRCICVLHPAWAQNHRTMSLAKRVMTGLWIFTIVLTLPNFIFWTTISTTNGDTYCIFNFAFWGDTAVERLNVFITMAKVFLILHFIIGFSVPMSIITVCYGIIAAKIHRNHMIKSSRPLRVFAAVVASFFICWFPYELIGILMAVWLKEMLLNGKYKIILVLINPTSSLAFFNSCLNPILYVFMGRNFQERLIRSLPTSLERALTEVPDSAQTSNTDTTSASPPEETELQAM

T4: Formyl peptide receptor 1 (human, UniProt P21462 1-350)
T4 chain: T1 sequence (P21462 1-350)


Legend:
[1] = system: human polymorphonuclear granulocytes (PMN; neutrophils); format: cell-based
FPR1 = molecular target: T1, FPR1; format: cell-based
FPR1, FPR2, FPR3, PMN = format: cell-based, human
[2] = molecular target: T2, Formyl peptide receptor 2
[3] = molecular target: T3, Formyl peptide receptor 3
[4] = molecular target: T4, Formyl peptide receptor 1
[5] = SARS-CoV-2 omicron B.1.1.529 spike pool peptides, 10 µM, PMN, n=6
[6] = […], it matches an identified peptide or IgG epitope of COVID-19 patients

Molecule	non-activators of FPR1 and PMNs: PMNs [1, 5]	non-activators of FPR1 and PMNs: FPR1 (FPR1)	further results
ITNLCPFDEVFNATR	non-activators of FPR1 and PMNs	non-activators of FPR1 and PMNs	Match with activator (region): Receptor (FPR1, FPR2, FPR3, PMN; [6]): FPR3
VLPFNDGVYFASIEKSNIIRGWIFGTT	–	–	Match with activator (region): Receptor (FPR1, FPR2, FPR3, PMN): FPR3
NFNFNGLKGTGVLTE	non-activators of FPR1 and PMNs	non-activators of FPR1 and PMNs	Match with activator (region): Receptor (FPR1, FPR2, FPR3, PMN; [6]): FPR3
TYGVGHQPYRVVVLSFELL	–	–	Match with activator (region): Receptor (FPR1, FPR2, FPR3, PMN; [6]): PMN + FPR1
QVKQIYKTPPIKYFGGFNFSQILPDPS	–	–	Match with activator (region): Receptor (FPR1, FPR2, FPR3, PMN): FPR3
QVKQIYKTPPIKYFG	–	–	significant PMN activators (group of the spike peptide pool screening) [1, 5]: significant PMN activators; Match with activator (region): Receptor (FPR1, FPR2, FPR3, PMN): PMN+ FPR2; Match with activator (region): Receptor (FPR1, FPR2, FPR3, PMN; [6]): PMN + FPR2
DGYFKIYSKHTPIIV	non-activators of FPR1 and PMNs	non-activators of FPR1 and PMNs	Match with activator (region): Receptor (FPR1, FPR2, FPR3, PMN): FPR2 + FPR3
DYSVLYNLAPFFTFKCYGV	–	–	Match with activator (region): Receptor (FPR1, FPR2, FPR3, PMN; [6]): PMN
EQYIKWPWYIWL	–	–	Match with activator (region): Receptor (FPR1, FPR2, FPR3, PMN): All FPRs + PMN
RFPNITNLCPFDEVF	non-activators of FPR1 and PMNs	non-activators of FPR1 and PMNs	–
AISSVLNDIFSRLDK	non-activators of FPR1 and PMNs	non-activators of FPR1 and PMNs	–
YGSFCTQLKRALTGI	non-activators of FPR1 and PMNs	non-activators of FPR1 and PMNs	–
NCVADYSVLYNLAPF	non-activators of FPR1 and PMNs	non-activators of FPR1 and PMNs	–
PPIKYFGGFNFSQIL	non-activators of FPR1 and PMNs	non-activators of FPR1 and PMNs	–
CVIAWNSNKLDSKVS	non-activators of FPR1 and PMNs	non-activators of FPR1 and PMNs	–
TYGVGHQPYRVVVLS	–	–	significant PMN activators (group of the spike peptide pool screening) [1, 5]: significant PMN activators; significant FPR1 activators (group of the spike peptide pool screening) (FPR1): significant FPR1 activators
VLNDIFSRLDKVEAE	non-activators of FPR1 and PMNs	non-activators of FPR1 and PMNs	–
YFGGFNFSQILPDPS	non-activators of FPR1 and PMNs	non-activators of FPR1 and PMNs	–
KVSGNYNYLYRLFRK	non-activators of FPR1 and PMNs	non-activators of FPR1 and PMNs	Match with activator (region): Receptor (FPR1, FPR2, FPR3, PMN; [6]): FPR3
DFTGCVIAWNSNKLD	non-activators of FPR1 and PMNs	non-activators of FPR1 and PMNs	–
GNIADYNYKLPDDFT	non-activators of FPR1 and PMNs	non-activators of FPR1 and PMNs	–
WNSNKLDSKVSGNYN	non-activators of FPR1 and PMNs	non-activators of FPR1 and PMNs	–
VNHNAQALNTLVKQLSSKFGAISSVLNDIFS	–	–	Match with activator (region): Receptor (FPR1, FPR2, FPR3, PMN): FPR3

Molecule	non-activators of FPR1 and PMNs: PMNs [1, 5]	non-activators of FPR1 and PMNs: FPR1 (FPR1)	further results
FCNDPFLDHKNNKSW	non-activators of FPR1 and PMNs	non-activators of FPR1 and PMNs	–
YFASIEKSNIIRGWI	non-activators of FPR1 and PMNs	non-activators of FPR1 and PMNs	–
GNKPCNGVAGFNCYF	non-activators of FPR1 and PMNs	non-activators of FPR1 and PMNs	–
QTRAGCLIGAEYVNN	non-activators of FPR1 and PMNs	non-activators of FPR1 and PMNs	–
SFRPTYGVGHQPYRV	non-activators of FPR1 and PMNs	non-activators of FPR1 and PMNs	–
KHTPIIVREPEDLPQ	non-activators of FPR1 and PMNs	non-activators of FPR1 and PMNs	–
IEKSNIIRGWIFGTT	non-activators of FPR1 and PMNs	non-activators of FPR1 and PMNs	–
VLPFNDGVYFASIEK	non-activators of FPR1 and PMNs	non-activators of FPR1 and PMNs	–
IFSRLDKVEAEVQID	–	non-activators of FPR1 and PMNs	non-activators of FPR1 and PMNs: PMNs [1]: non-activators of FPR1 and PMNs
NGLKGTGVLTESNKK	non-activators of FPR1 and PMNs	non-activators of FPR1 and PMNs	–
LKSYSFRPTYGVGHQ	non-activators of FPR1 and PMNs	non-activators of FPR1 and PMNs	–
GAEYVNNSYECDIPI	non-activators of FPR1 and PMNs	non-activators of FPR1 and PMNs	–
NKCVNFNFNGLKGTG	non-activators of FPR1 and PMNs	non-activators of FPR1 and PMNs	–
CEFQFCNDPFLDHKN	non-activators of FPR1 and PMNs	non-activators of FPR1 and PMNs	–
LLLQYGSFCTQLKRALTGI	–	–	Match with activator (region): Receptor (FPR1, FPR2, FPR3, PMN): FPR3
AQALNTLVKQLSSKF	non-activators of FPR1 and PMNs	non-activators of FPR1 and PMNs	–
SKFGAISSVLNDIFS	non-activators of FPR1 and PMNs	non-activators of FPR1 and PMNs	–
ALGKLQDVVNHNAQA	non-activators of FPR1 and PMNs	non-activators of FPR1 and PMNs	–
AGICASYQTQTKSHR	non-activators of FPR1 and PMNs	non-activators of FPR1 and PMNs	–
EPEDLPQGFSALEPL	–	–	significant PMN activators (group of the spike peptide pool screening) [1, 5]: significant PMN activators; Match with activator (region): Receptor (FPR1, FPR2, FPR3, PMN; [6]): PMN
DYSVLYNLAPFFTFKCYGVSPTK	–	–	Match with activator (region): Receptor (FPR1, FPR2, FPR3, PMN; [6]): FPR3
EQYIKWPWYVWL (also: fluorescently labeled) [fluorescently labeled SARS-CoV MPR peptide CV3]	–	–	Kd [2]: 337 nM; Kd [3]: 756 nM; Kd [4]: 7.3 nM
ETYIKWPWWVWL (also: fluorescently labeled) [fluorescently labeled HCoV-229E MPR peptide CV1]	–	–	Kd [2]: 287 nM; Kd [3]: 366 nM; Kd [4]: 8.4 nM

Source: PMC12284294 (iScience, 2025)
